Values joined by “and” are separate entries in the source; they are usually repeats but may differ in a detail not shown here. Equal values may be shown once. Active and inactive are the calls of the source.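 How the source made its calls: active means compounds giving half or more protection of infected cells from virus-caused growth loss, again on retest; inactive means the rest.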
Test system: CEM cells HIV-1 protection, formazan growth assay
Test: NCI AIDS Antiviral Assay
Conditions: for IC50: measured here: growth of uninfected CEM cells
In short: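 Human CEM cells, uninfected and HIV-1-infected, received five drug concentrations, and growth was read by soluble formazan assay. Compounds giving at least 50% protection were retested; reproducible 100% protection defined confirmed active.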

Structure (SMILES) | EC50 [µM] | IC50 | outcome
Cc1ccc(/C(O)=C/C(=O)C(=O)NC23CC4CC(CC(C4)C2)C3)cc1 | > 200 | 77.6 µM | 
CC(C)(C)C1=CC(=Nc2c([N+](=O)[O-])cc([N+](=O)[O-])cc2[N+](=O)[O-])C=C(C(C)(C)C)C1=O | > 11.5 | > 11.5 µM | 
O/N=C(\CSSC/C(=N/O)c1ccc(Cl)cc1)c1ccc(Cl)cc1 | > 200 | 10.7 µM | 
Clc1ccc([S+](c2ccc(Cl)cc2)C(Cl)(Cl)C(Cl)(Cl)Cl)cc1 | > 52.5 | 7.24 µM | 
Cc1nnc(NC2=NCCO2)s1 | > 200 | > 200 µM | 
N#Cc1c2c([nH]c(=O)c1C#N)CCCC2 | > 200 | > 200 µM | 
CC(C)OP(=O)(OC(C)C)C(C(F)(F)F)C(F)(F)F | > 200 | > 200 µM | 
CC(=O)O[C@@H]1C(C2CCCCC2)C=[N+]([O-])O[C@@H]1OC1CCCC1(c1ccccc1)c1ccccc1 (stereo partly specified) | > 200 | 1.7 µM | 
Cc1ccccc1-c1cc(=O)c2cc(C)c(C)c(C(=O)O)c2o1 |  |  | inactive
COc1cc(C2C(Cl)C(=O)N2NC(=O)c2ccc(NC(C)=O)cc2)ccc1O (stereo unspecified) | > 200 | > 200 µM | 
COC(=O)N/N=C(\C)CC(=O)Nc1cccc([N+](=O)[O-])c1 | > 447 | > 447 µM | 
Cc1ccccc1NC(=S)N/N=C(/c1ccccc1)c1ccccn1 | > 0.2 | 0.0676 µM | 
O=S1(=O)c2ccccc2NC(=S)CC1c1ccccc1 (stereo unspecified) | > 200 | 129 µM | 
CC(C)CN(CC(C)C)C(=O)C1CCCC[C@@H]1C(=O)O (stereo partly specified) | > 891 | > 891 µM | 
C=Cc1c(C#N)nc(C)c(C)c1-c1ccc(OC)c(OC)c1OCc1ccccc1 | > 200 | 14.1 µM | 
COc1cc2nc(NCCCCCNC(=O)c3ccco3)nc(N)c2cc1OC | > 575 | 35.5 µM | 
COc1ccc(-n2c(Cn3nnc(-c4cccnc4)n3)nn(C3OC(COC(=O)c4ccccc4)C(OC(=O)c4ccccc4)C3OC(=O)c3ccccc3)c2=S)cc1 (stereo unspecified) | > 100 | > 100 µM | 
O=c1[nH]c(=O)c2[nH]c(=O)[nH]c(=O)c2[nH]1 | > 200 | > 200 µM | 
CCN(CC)CCNCC(O)CN1CCN(C)CC1 (stereo unspecified) | > 200 | 155 µM | 
N=c1c2ccccc2nc2oc3ccc(Cl)cc3n12 | > 200 | 102 µM | 
C=CCC[CH2][Sn]([c]1ccccc1)([c]1ccccc1)[c]1ccccc1 |  |  | inactive

Structure (SMILES) | EC50 [µM] | IC50 | outcome
Cn1c2ccccc2c2ccc3c(c21)C(=O)c1ccc2c4ccccc4n(C)c2c1C3=O | > 200 | > 200 µM | 
O=[N+]([O-])c1ccc2[nH]c(=S)n(/C=C(/c3ccccc3)S(=O)Cc3ccccc3)c2c1 (stereo unspecified) | > 200 | > 200 µM | 
N=C1C(=N)c2ccccc2-c2ccccc21 | > 200 | 0.407 µM | 
CC(CO)CCNc1ncnc2c1ncn2CCC(=O)OC(C)(C)C (stereo unspecified) | > 200 | > 200 µM | 
O=C(O)c1cscc1Cc1cccs1 | > 200 | > 200 µM | 
COc1ccc(/C=N/N=C(\[O-])c2ccncc2)cc1F.COc1ccc(/C=N\N=C(/[O-])c2ccncc2)cc1F.[Cu+2] | > 100 | 18.6 µM | 
OCCN(/N=C\c1ccc2ccccc2c1)C1=NCCN1 | > 200 | 31.6 µM | 
O=C(CC1=Nc2nnc(CCCCCCCc3nnc4n3C(=O)C(CC(=O)c3ccc5ccccc5c3)=N4)n2C1=O)c1ccc2ccccc2c1 | > 4.07 | > 4.07 µM | 
Nc1nn2cc3c(nc2c1N=Nc1ccccc1)-c1ccccc1CC3 | > 200 | > 200 µM | 
O=C(CN1CCOCC1)Nc1nc(-c2ccc(Cl)cc2)cs1 | > 107 | 33.1 µM | 
CC1C(=O)CC2C3(C)CCC2(C(C)C(=O)O)C(=O)C13 (stereo unspecified) | > 275 | 224 µM | 
CCCN=C(C(C)=O)N(C)C | > 1580 | 871 µM | 
Cc1nc2ccncc2[nH]1 | > 269 | 191 µM | 
CCOP(=O)(OCC)/C(C#N)=C/c1cccc(C#N)c1 | > 617 | 102 µM | 
CN(Cc1nc2c(N)nc(N)nc2[nH]c1=O)c1ccc(C(=O)NC(CCC(=O)O)C(=O)O)cc1 (stereo unspecified) | > 200 | 10.7 µM and 8.13 µM | 
Cc1nc(CC2C(CO[Si](C)(C)C(C)(C)C)OC(n3ccc(=O)[nH]c3=O)C2O[Si](C)(C)C(C)(C)C)no1 (stereo unspecified) | > 200 | 6.61 µM | 
CCn1c(CSc2nc(-c3ccccc3)c(-c3ccccc3)[nH]2)n[nH]c1=S | > 91.2 | 52.5 µM | 
N#CC1(Cc2ccccc2Cl)c2ccccc2C=CN1C(=O)c1ccccc1 (stereo unspecified) |  |  | inactive
CC(=O)OCC1OC(n2c(C)c(N=Nc3ccc(C)cc3)c(C)c(C#N)c2=S)C(OC(C)=O)C(OC(C)=O)C1OC(C)=O (stereo unspecified) | > 200 | > 200 µM | 
Nc1nn2c(C(Br)Br)cc(C(Br)Br)nc2c1[N+](=O)[O-] | > 200 | 0.525 µM | 
CCOC(=O)OC1(c2ccccc2)CCN(C)CC1 | > 200 | > 200 µM | 

From PubChem BioAssay AID179 (DTP/NCI, 2004)
